This note sets out measurements from patent US11220479B2, “Glucosylceramide synthase inhibitors and therapeutic methods using the same” (THE REGENTS OF THE UNIVERSITY OF MICHIGAN, priority 2019, dated 2022).

Counter-ions that a name gives are not always drawn.

Series [1] can be described thus: IP PK: areas under the drug concentration curve after single IP dose in mice. To be noted: for IP PK Brain AUC / AUC: mice, single IP dose 10 mg/kg; for AUC: mouse, plasma. Type of series: in vivo.
In series [2] the test system is brain glucosylceramide (GCS inhibition). The series can be described thus: Reduction of brain glucosylceramide in CBE mice. Type of series: in vivo. To be noted: qd, 14 days. As to the method:
Reduction of Brain Glucosylceramide and Glucosylsphingosine in CBE Mice
The reduction by inhibitors of GCS in brain glucosylceramide and glucosylsphingosine content was determined by the use of mice with Gba 1 mutant alleles, termed D409V/null. These are knock-in mice with a Gba 1 point mutation encoding Valine (V) 409 for the wild type (WT) Aspartate (D) on one missense allele and a null heteroallele [D409V/null (9V/null)]. The D409V/null and WT littermates were of mixed gender and mixed, but matched, genetic backgrounds of C57BL/129Sv/FVB. (Xu Y H, Sun Y, Barnes S, Grabowski G A (2010) Comparative therapeutic effects of velaglucerase alfa and imiglucerase in a Gaucher disease mouse model. PLoS One 5: e10750.) Mice were treated with intraperitoneal conduritol B epoxide (CBE), an irreversible inhibitor of beta-glucocerebrosidase (25 mg/kg/day) for all groups beginning at post-partum day 15. Mice were concurrently treated with GCS inhibitor or vehicle control for 14 days. The mice were sacrificed 2 hours following the last injection and tissues including brain, liver, spleen, kidney and lung were analyzed for glucosylceramide and glucosylsphingosine by mass spectrometry.
(§1) Mouse Tissue Lipid Analysis
(§2) Lipid extractions of liver, kidney, and brain were performed as previously described (7). Briefly, frozen liver (about 0.5 g), two kidneys (about 0.3 g) and whole brain (about 0.4 g) were individually homogenized in sucrose buffer (250 mM sucrose, pH 7.4, 10 mM HEPES and 1 mM EDTA), at 0.2 g tissue/1 mL of sucrose buffer, with a Tri-R homogenizer. Each 0.8 mL of homogenate was mixed with 2 mL of methanol and 1 mL of chloroform, bath sonicated for 1 min and incubated at room temperature for 1 h. Tissue debris were removed by centrifugation at 2,400× gravity for 30 min. The pellets were re-extracted by mixing with 1 mL of methanol, 0.5 mL of chloroform and 0.4 mL of 0.9% NaCl (chloroform/methanol/0.9% NaCl, 1:2:0.8), incubated at room temperature for 1 h and centrifuged at 2,400× gravity for another 30 min. Two extracts were combined and mixed with 4.5 mL of chloroform and 1.2 mL of 0.9% NaCl (chloroform/methanol/0.9% NaCl, 2:1:0.8). After centrifugation at 800× gravity for 5 min, lower layer was washed with 3 mL of methanol and 2.4 mL of 0.9% NaCl. Second washing was carried with 3 mL of methanol, 2 mL of water and 0.4 mL of 0.9% NaCl followed by a 5 min centrifugation at 800× gravity. The resultant lower phase was collected and dried under a stream of N2 gas.
The analysis of neutral glycosphingolipids from mouse liver, kidney, and brain was processed after alkaline methanolysis. […] lipids were incubated with 2 mL of chloroform and 1 ml of 0.21N NaOH in methanol for 2 h (kidney) or 7.5 h (liver and brain) at RT. The lipid extract was normalized to 0.5 μmol of total phospholipid phosphate (liver and kidney) or 2 μmol of total phospholipid phosphate (brain) for high performance thin layer chromatography analysis. After alkaline methanolysis, the brain lipids were passed through a silica gel column (7). Borate-impregnated thin layer chromatography plates were developed in a two solvent system. Plates were first developed in chloroform/methanol (98:2, v/v). The plates loaded with kidney and liver lipids were then developed in chloroform/methanol/water (64:24:4, v/v/v), and brain lipids were further separated in chloroform/methanol/water (60:30:6, v/v/v). GlcCer levels were quantified by comparison to known standards.
(§3) ^a Inhibition of GlcCer production in whole wild-type MDCKII cells. ^bHalf-life when incubated with mouse liver microsomes. ^cAreas under the drug concentration curve after single IP dose in mice (10 mg/kg). ^dReduction in brain levels of glucosylceramide in CBE mice after 14 days of qd dosing with test drug administered IP. NC=no change.

Series [3] in a line: Half-life when incubated with mouse liver microsomes (MLM). To be noted: half-life when incubated with mouse liver microsomes; read-out: MLM T½. Type of series: in vitro ADME. As to the method:
as §3
(In general: Liver microsomes are vesicles of endoplasmic reticulum, rich in cytochrome P450 enzymes.)

Series [4] has as its target T1, glucosylceramide synthase (GCS) (Canis lupus familiaris, UniProt A0A8I3MXG6).
T1 construct: endogenous in cells; host or cells: parental (wild-type) MDCKII cells
T1 sequence (A0A8I3MXG6 1-394): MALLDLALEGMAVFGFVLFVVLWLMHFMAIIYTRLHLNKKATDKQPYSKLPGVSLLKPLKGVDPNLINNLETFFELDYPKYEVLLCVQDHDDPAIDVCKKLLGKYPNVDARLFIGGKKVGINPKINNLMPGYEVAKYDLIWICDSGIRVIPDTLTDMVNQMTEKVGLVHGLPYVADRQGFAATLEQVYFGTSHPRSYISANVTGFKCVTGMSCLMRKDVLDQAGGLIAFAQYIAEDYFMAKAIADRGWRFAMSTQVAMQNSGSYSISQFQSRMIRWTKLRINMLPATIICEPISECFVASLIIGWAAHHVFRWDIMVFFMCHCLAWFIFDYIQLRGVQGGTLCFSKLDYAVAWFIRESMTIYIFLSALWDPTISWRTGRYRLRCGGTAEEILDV
The series can be described thus: GCS inhibition in MDCKII cells (inhibition of GlcCer production in whole wild-type MDCKII cells). Type of series: cell-based. To be noted: inhibition of GlcCer production in whole wild-type MDCKII cells, 24 hours; read-out: MDCK IC50.
Experimental: GCS Inhibition in MDCKII Cells
Parental (WT-)MDCKII cells were routinely maintained in medium consisting of Opti-MEM/F12 (1:1), 5% FBS, 100 U/mL of penicillin, 100 μg/mL streptomycin and 200 mM L-glutamine. MDCKII cells were newly thawed from frozen ampules every two months.
The inhibitor-ethanol solutions then were diluted 50× into 2 mM delipidated bovine serum albumin-phosphate buffered saline solution to make water-soluble glycosphingolipid inhibitor-bovine serum albumin complexes. The inhibitor-bovine serum album complexes were sterile-filtered and stored at −20° C. Prior to use, portions of the inhibitor-bovine serum albumin complexes were further diluted with Opti-F12 to make treatment solutions. Equal amounts of bovine serum albumin and ethanol were added into the control cultures. Cells (5×10^5) were seeded into 10-cm culture dishes containing 10 ml of Opti-F12 with 5% FBS. After 24 hours, the medium was replaced with fresh serum-free Opti-F12 medium, and cells were exposed to candidate GCS inhibitors at concentrations of 0, 1, 3, 10, 30, 100 and 300 nM for 24 hours.
Briefly, cells were washed with ice-cold phosphate buffered saline, fixed by methanol, and collected with rubber scraper. Chloroform was then added to yield a theoretical ratio of chloroform:methanol:water at 1:2:0.8 (v/v/v) to form a mono-phase. Cell debris and proteins were removed by centrifugation at 2200×g for 30 min. The supernatants were portioned by adding chloroform and 0.9% NaCl. […] A portion of purified glycosphingolipids normalized to 100 nmol of total phospholipids was analyzed by high performance thin layer chromatography. The thin layer chromatography separations were processed twice. The plate pretreated with 1% sodium borate was first developed in a solvent system consisting of chloroform/methanol (98/2, v/v). After air drying, the plate was then developed in a solvent system containing chloroform/methanol/water (70/30/4, v/v/v). The levels of glucosylceramide were detected by charring with 8% cupric sulfate in 8% phosphoric acid, and quantified by densitometric scanning using ImageJ, NIH Image.

In series [5] the test system is brain glucosylceramide content. The experiment in a line: Brain glucosylceramide content after intraperitoneal administration to mice for 3 days. Type of series: in vivo. The conditions noted are these: intraperitoneal administration for 3 days. As to the method:
The compounds were screened for inhibition of GCS in broken cell and whole cell assays, and for MDR1 substrate recognition.
as §1
as §2, with “Second washing was carried with 3 mL of methanol, 2 mL of water and 0.4 mL of 0.9% NaCl followed by a 5 min centrifugation at 800× gravity. The resultant lower phase was collected and dried under a stream of N2 gas.” left out
The analysis of neutral glycosphingolipids from mouse liver, kidney, and brain was processed after alkaline methanolysis. […] GlcCer levels were quantified by comparison to known standards.

On to `O=C(CC1Cc2ccccc2C1)N[C@H](CN1CCCC1)[C@H](O)c1cccc(Cl)c1` [Example 1, N-((1R,2R)-1-(3-chlorophenyl)-1-hydroxy-3-(pyrrolidin-1-yl)propan-2-yl)-2-(2,3-dihydro-1H-inden-2-yl)acetamide], for which, in series [1], the “IP PK Brain AUC” value worked out at 1109 ng·h/mL and the AUC – broadly, concentration integrated over time – was found to be 1540 ng·h/mL. Besides, the “Reduction in brain GlcCer in CBE mice” value in series [2] (36 μmol/kg/day IP) is given as 23%. Also, the half-life in series [3] was 18 min. In addition, the IC50 (in general, the concentration needed to halve the response being measured) in series [4] is 1 nM.
For the molecule `CC(C)(C)Oc1ccc([C@@H](O)[C@@H](CN2CCCC2)NC(=O)CC2Cc3ccccc3C2)cc1Cl` [Example 2, N-((1R,2R)-1-(4-(tert-butoxy)-3-chlorophenyl)-1-hydroxy-3-(pyrrolidin-1-yl)propan-2-yl)-2-(2,3-dihydro-1H-inden-2-yl)acetamide], in series [1], the “IP PK Brain AUC” value turned out to be 1316 ng·h/mL and the AUC worked out at 1990 ng·h/mL. The “Reduction in brain GlcCer in CBE mice” value in series [2] (26 μmol/kg/day IP) came to 21%. Moreover, the half-life in series [3] turned out to be 170 min. In addition, in series [4], the IC50 was determined as 0.081 nM.
Consider `O=C(CC1Cc2ccccc2C1)N[C@H](CN1CCCC1)[C@H](O)c1ccc(OC2CC2)c(Cl)c1` [Example 4, N-((1R,2R)-1-(3-chloro-4-cyclopropoxyphenyl)-1-hydroxy-3-(pyrrolidin-1-yl)propan-2-yl)-2-(2,3-dihydro-1H-inden-2-yl)acetamide], for which, in series [1], the “IP PK Brain AUC” value turned out to be 293 ng·h/mL and the AUC was 1020 ng·h/mL. In addition, the “Reduction in brain GlcCer in CBE mice” value in series [2] (26 μmol/kg/day IP) was determined as 33%. Besides, the half-life in series [3] is 24 min. Further, the IC50 in series [4] turned out to be 0.14 nM.
For `CC1(Oc2ccc([C@@H](O)[C@@H](CN3CCCC3)NC(=O)CC3Cc4ccccc4C3)cc2Cl)COC1` [Example 5, N-((1R,2R)-1-(3-chloro-4-((3-methyloxetan-3-yl)oxy)phenyl)-1-hydroxy-3-(pyrrolidin-1-yl)propan-2-yl)-2-(2,3-dihydro-1H-inden-2-yl)acetamide], in series [1], the “drug exposure in the brain versus compound lacking the 3-chloro substituent” value is listed as “improved”, the “IP PK Brain AUC” value was determined as 366 ng·h/mL and the AUC was found to be 849 ng·h/mL. In series [2] (100 μmol/kg/day IP), the “Reduction in brain GlcCer in CBE mice” value came to 64%. Besides, the half-life in series [3] is 40 min. For the same molecule, the IC50 in series [4] is 0.74 nM.
For the molecule `CC1(C)COc2cc([C@@H](O)[C@@H](CN3CCCC3)NC(=O)CC3Cc4ccccc4C3)cc(Cl)c2O1` [Example 7, N-((1R,2R)-1-(8-chloro-2,2-dimethyl-2,3-dihydrobenzo[b][1,4]dioxin-6-yl)-1-hydroxy-3-(pyrrolidin-1-yl)propan-2-yl)-2-(2,3-dihydro-1H-inden-2-yl)acetamide], in series [1], the “drug exposure in the brain versus compound lacking the 3-chloro substituent” value was “improved”, the “IP PK Brain AUC” value is 129 ng·h/mL and the AUC is 590 ng·h/mL. The “Reduction in brain GlcCer in CBE mice” value in series [2] (26 μmol/kg/day IP) turned out to be 49%. Further, the half-life in series [3] was 44 min. The IC50 in series [4] was found to be 0.061 nM.
As to `O=C(CC1Cc2ccc(F)cc2C1)N[C@H](CN1CCCC1)[C@H](O)c1cccc(Cl)c1` (stereo partly drawn) [Example 9, N-((1R,2R)-1-(3-chlorophenyl)-1-hydroxy-3-(pyrrolidin-1-yl)propan-2-yl)-2-(5-fluoro-2,3-dihydro-1H-inden-2-yl)acetamide], in series [1], the “IP PK Brain AUC” value was found to be 869 ng·h/mL and the AUC turned out to be 2180 ng·h/mL. Further, the “Reduction in brain GlcCer in CBE mice” value in series [2] (26 μmol/kg/day IP) is recorded as 43%. In series [3], the half-life came out at 50 min. In addition, the IC50 in series [4] was found to be 0.8 nM.
On the same counts, the results for `O=C(N[C@H](CN1CCCC1)[C@H](O)c1ccc(OC2CC2)c(Cl)c1)OC1Cc2ccccc2C1` [Example 12, 2,3-dihydro-1H-inden-2-yl ((1R,2R)-1-(3-chloro-4-cyclopropoxyphenyl)-1-hydroxy-3-(pyrrolidin-1-yl)propan-2-yl)carbamate] are 210 ng·h/mL, 370 ng·h/mL, 32%, 29 min and 0.32 nM.
For `O=C(N[C@H](CN1CC[C@@H](F)C1)[C@H](O)c1cccc(Cl)c1)OC1Cc2ccccc2C1.O=C(O)C(=O)O` [Example 15, 2,3-dihydro-1H-inden-2-yl ((1R,2R)-1-(3-chlorophenyl)-3-((R)-3-fluoropyrrolidin-1-yl)-1-hydroxypropan-2-yl)carbamate oxalate], in series [1], the “IP PK Brain AUC” value is 2656 ng·h/mL and the AUC is 913 ng·h/mL. Further, the half-life in series [3] stood at 0.8 min. The IC50 in series [4] was 19.5 nM.
On the same counts, the results for `[2H]C([2H])([2H])N(C(=O)CC1Cc2ccccc2C1)[C@H](CN1CCCC1)[C@H](O)c1cccc(Cl)c1` [Example 17, N-((1R,2R)-1-(3-chlorophenyl)-1-hydroxy-3-(pyrrolidin-1-yl)propan-2-yl)-2-(2,3-dihydro-1H-inden-2-yl)-N-(methyl-d3)acetamide] are 742 ng·h/mL, 366 ng·h/mL, 15 min and 11 nM.
The corresponding values for `O=C(CC1Cc2ccccc2C1)N[C@H](CN1CCCC1)[C@H](O)c1cc(Cl)ccc1F` [Example 23, N-((1R,2R)-1-(5-chloro-2-fluorophenyl)-1-hydroxy-3-(pyrrolidin-1-yl)propan-2-yl)-2-(2,3-dihydro-1H-inden-2-yl)acetamide] are “BLQ”, 644 ng·h/mL, 24 min and 0.17 nM.
For `CCCCCCCC(=O)N[C@H](CN1CCCC1)[C@H](O)c1ccc2c(c1)OCCO2` [eliglustat tartrate, N-((1R,2R)-1-(2,3-dihydrobenzo-[b][1,4]dioxin-6-yl)-1-hydroxy-3-(pyrrolidin-1-yl)propan-2-yl)octanamide], the “decrease in brain glucosylceramide content” value in series [5] was “not seen”.
